The structures appear in SMILES notation. In brackets after ≈: the same amount, converted by molar mass.

The results in this text go back to patent EP2923697B1, “Extract and novel isolated compound from Aspergillus terreus for treatment of mouth microbial infections” (King Saud University, priority 2014, dated 2015).

Holding throughout (assay type): cell-based
Experiment [1] concerns Candida albicans. Nature of the experiment: In-vitro activity in combination with Coe-Comfort tissue conditioner, CFU count. The conditions noted are these: for No. colony-forming units (CPU): Candida albicans, mixed with Coe-Comfort. As for the experimental part:
The Coe-Comfort tissue conditioner was mixed according to the proportions indicated by the manufacturers. In detail, Coe-comfort™ tissue conditioner is formed by dispensing 5 ml of Coe-comfort liquid into a disposable mixing cup. The red measure level is filled with about 6 g of Coe-comfort powder and is then slowly added to the liquid. The obtained mixture is blended for 30 seconds and setted aside for approximately one minute until it flows sluggishly from a spatula. Using less liquid gives a thicker, faster setting mix and vice versa. […] The extract and isolated compound/conditioner mixture was homogenized in a sterile glass beaker for 30 seconds. Immediately afterwards, the conditioning powder was added and mixed for 40 seconds and then poured onto a Petri plate. Once the mixture solidified, the surface was covered with 4 ml of Sabouraud agar, and after 30 minutes, inoculated with 20 µl of an appropriate dilution of Candida. The plates were incubated at 37°C for 24 hours and then the CFUs were counted. The experiment was performed in triplicate. For the conditioner Coe-Comfort, the control was unmodified conditioner.

For experiment [2], the system named is Candida tropicalis. The experiment in a line: Antimicrobial activity, well diffusion method. The conditions noted are these: 5mg/ml of sample around well (6 mm), mean ± Standard deviation. From the text:
(§1) Mouth microbial representatives including unicellular fungi; Candida albicans (RCMB 05382), Candida glabrata (RCMBA 05386), Candida parapsilosis (RCMBA 06002), Candida tropicalis (RCMB 05384), Gram-positive bacteria; Lactobacillus acidophilus (RCMBA 4267), Streptococcus gordonii (RCMBA 2004), Streptococcus mutans (RCMBA 4131), and Gram-negative bacteria; Pseudomonas aeruginosa (RCMBA 1002) were obtained from the Regional Center for Mycology and Biotechnology (RCMB), Al-Azhar University, Cairo, Egypt, as test organisms. Antimicrobial activity was determined by the well diffusion method. Petri plates contained 20 ml of Nutrient (for bacteria) or Malt extract (for fungi). Agar medium were seeded with 1-3 day cultures of microbial inoculums (1-2 X 10^7 CFU/ml). […] The assessment of antimicrobial activity was based on measurement of the diameter of the inhibition zone formed around the well.
A general note: A growth-free zone around the sample is the usual read-out of agar diffusion tests.

The test system of experiment [3] is Candida glabrata. Nature of the experiment: Antimicrobial activity, well diffusion method. The note with it: 5mg/ml of sample around well (6 mm), mean ± Standard deviation.
Source text: as §1

Experiment [4] deals with Candida albicans. Nature of the experiment: Antimicrobial activity, well diffusion method. The note with it: 5mg/ml of sample around well (6 mm), mean ± Standard deviation.
Source text: as §1

Experiment [5] concerns Candida parapsilosis. Nature of the experiment: Antimicrobial activity, well diffusion method. The conditions noted are these: 5mg/ml of sample around well (6 mm), mean ± Standard deviation.
Source text: as §1

The subject of experiment [6] is Candida tropicalis. Nature of the experiment: MIC determination, micro-dilution method. The conditions noted are these: read-out: Minimum Inhibitory Concentration. From the text: (§2) Mouth microbial representatives including unicellular fungi; Candida albicans (RCMB 05382), Candida glabrata (RCMBA 05386), Candida parapsilosis (RCMBA 06002), Candida tropicalis (RCMB 05384), Gram-positive bacteria; Lactobacillus acidophilus (RCMBA 4267), Streptococcus gordonii (RCMBA 2004), Streptococcus mutans (RCMBA 4131), and Gram-negative bacteria; Pseudomonas aeruginosa (RCMBA 1002) were obtained from the Regional Center for Mycology and Biotechnology (RCMB), Al-Azhar University, Cairo, Egypt, as test organisms.
(§3) The minimum inhibitory concentration (MIC) was determined by micro-dilution method using serially diluted (2 folds) extract and isolated compound. MIC of the extract was determined by dilution of extract and isolated compound of concentrations of 0.0-1000 µg/ml. Equal volume of each extract and nutrient broth were mixed in a test tube. Specifically 0.1 ml of standardized inoculum (1-2 X 10^7 CFU/ml) was added in each tube. The tubes were incubated at 37°C for 24-48 h. Two control tubes containing the growth medium, saline and the inoculum were maintained for each test batch. The lowest concentration (highest dilution) of the extract that produced no visible microbial growth (no turbidity) when compared with the control tubes were regarded as MIC.

The subject of experiment [7] is Candida glabrata. Nature of the experiment: MIC determination, micro-dilution method. The note with it: Nakaseomyces glabratus, read-out: Minimum Inhibitory Concentration.
Source text: as §2, §3
Background: In broth dilution the organism is exposed to a series of concentrations in liquid medium.

Experiment [8] has as its system Candida parapsilosis. The experiment in a line: MIC determination, micro-dilution method. The note with it: Lodderomyces parapsilosis, read-out: Minimum Inhibitory Concentration.
Source text: as §2, §3

For `C[C@@H]1[C@H](O)[C@@H](C)/C=C/C=C/C=C/C=C/C=C/C=C/C=C/[C@H](O[C@@H]2O[C@H](C)[C@@H](O)[C@H](N)[C@@H]2O)C[C@@H]2O[C@](O)(C[C@@H](O)C[C@@H](O)[C@H](O)CC[C@@H](O)C[C@@H](O)CC(=O)O[C@H]1C)C[C@H](O)[C@H]2C(=O)O` [Amphotericin B, reference compound], the “concentration giving total growth inhibition” value in experiment [1] (C. albicans, in combination with Coe-comfort tissue conditioner) was 7.81 µg/mL. The “No. colony-forming units (CPU)” value is 9.1 x 10^4 in experiment [1] (concentration 000.49 µg/ml); 8.9 x 10^4 in experiment [1] (concentration 000.98 µg/ml); 9.3 x 10^3 in experiment [1] (concentration 001.95 µg/ml); 8.1 x 10^2 in experiment [1] (concentration 003.90 µg/ml); 00.00 in experiment [1] (concentration 007.81 µg/ml); 00.00 in experiment [1] (concentration 015.63 µg/ml). For the same compound, the “No. colony-forming units (CPU)” value in experiment [1] (concentration 031.25 µg/ml) and in experiment [1] (concentration 062.50 µg/ml) was 00.00 in each case. The “Diameter of inhibition zone” value was 24.6± 0.27 mm in experiment [2], 20.4± 0.87 mm in experiment [3], 21.3± 0.14 mm in experiment [4] and 23.2 ± 0.53 mm in experiment [5]. In addition, the MIC in experiment [6] is 0.12 µg/mL (≈ 0.13 µM); in experiment [7], 1.95 µg/mL (≈ 2.11 µM); in experiment [8] it was 0.49 µg/mL (≈ 0.53 µM).
